Measured values published in ChEMBL document CHEMBL1134167, “Conformational study of a highly specific CXCR4 inhibitor, T140, disclosing the close proximity of its intrinsic pharmacophores associated with strong anti-HIV activity” (Bioorg Med Chem Lett, 2001).
Where a SMILES comes first, the peptide text is derived from it. Bridges are numbered along the chain shown (N, C = ends). [ ]: non-standard residue; d: D form. Gly(2-naphthyl) = N[C@H](C(=O)O)c1ccc2ccccc2c1; Cit = NC(=O)NCCC[C@H](N)C(=O)O

Test system: Human immunodeficiency virus 1
Test: Effective concentration for HIV-1 inhibition
Assay type: functional, organism-based

- EC50: 3.5 nM
Structure (SMILES): NCCCC[C@@H]1NC(=O)[C@H](CCCN=C(N)N)NC(=O)[C@H](Cc2ccc(O)cc2)NC(=O)[C@@H](NC(=O)[C@@H](NC(=O)[C@H](CCCN=C(N)N)NC(=O)[C@@H](N)CCCN=C(N)N)c2ccc3ccccc3c2)CSSC[C@@H](C(=O)N[C@@H](CCCN=C(N)N)C(=O)O)NC(=O)[C@H](CCCNC(N)=O)NC(=O)[C@H](CCCN=C(N)N)NC(=O)[C@H](Cc2ccc(O)cc2)NC(=O)[C@@H]2CCCN2C(=O)[C@@H](CCCCN)NC1=O (H-RR[Gly(2-naphthyl)]CYRK[dK]PYR[Cit]CR-OH; disulfide 4-13)
